In patent US5134125A, “Nutrient composition” (Kyowa Hakko Kogyo Co., Ltd., priority 1989, dated 1992):
Where a SMILES comes first, the peptide text is derived from it.

Columns and labels:
[1] = Hydrolysis of dipeptides in human plasma; assay type: in vitro ADME; conditions: 37° C., 30 minutes; for Residual Rate: 10 mM dipeptide
Protocol: Each of the dipeptides shown in Table 1 below was added to 0.75 ml of plasma collected and prepared from human to give a concentration of 10 mM, followed by reaction at 37° C. for 30 minutes.

[2] = Hydrolysis of dipeptides in mouse plasma; assay type: in vitro ADME, C3H/He mice; conditions: 3.13 mM, 37° C.; for Residual Rate: mean of five mice
Protocol: Each of the dipeptides shown in Table 2 below was added to 0.05 ml of plasma collected and prepared from C3H/He mice (6 weeks of age, male, weighing 20 g) to give a concentration of 3.13 mM, followed by reaction at 37° C. for 2, 5, 10 and 20 minutes. Five mice were used for each test group, and the results are shown by the mean value.

[3] = Change in concentration in blood of dipeptides administered to mice; assay type: in vivo, C3H/He mice; conditions: tail vein, 250 μmoles/kg body weight, FIG. 1
Excerpt: γ-L-Glutamyl-L-glutamine and L-alanyl-L-glutamine were respectively administered to C3H/He mice (6 weeks of age, male, weighing 20 g) through the tail vein at a dose of 250 μmoles/kg body weight, and blood was collected intermittently. Five mice were used for each test group, and the results are shown by the mean ±SEM.

[4] = Influence of administered dipeptides on renal glutamine level; assay type: in vivo, C3H/He mice; conditions: mice, tail vein; for Concentration of Glutamine in kidney: 250 γmoles/kg body weight, kidneys excised after 20 minutes, mean ±SEM, five mice
Protocol: γ-L-Glutamine-L-glutamine and L-alany-L-glutamine were respectively administered to C3H/He mice (6 weeks of age, male, weighing 20 g) through the tail vein at a dose of 250 γmoles/kg body weight, and after 20 minutes, the kidneys were excised. The glutamine level in the organ was compared to that prior to the administration of the dipeptides. Five mice were used for each test group, and the results are shown by the mean ±SEM.

[5] = Stability in solution under sterilizing conditions; assay type: physicochemical; conditions: solution 10 mM, pH 6.5, 110° C. for 60 minutes
[6] = Storage stability test at 40° C. for 30 days; assay type: physicochemical; conditions: in solution
[7] = molecular target: T1, γ-GTP (γ-glutamyl transferase) (Sus scrofa, UniProt P20735); experiment: Hydrolysis of dipeptides by γ-GTP; assay type: biochemical; conditions: 5 mM dipeptide, Tris-HCl buffer 50 mM pH 7.0, γ-GTP from swine kidney, 37° C., 120 minutes
T1 construct: γ-GTP prepared from swine kidney was added to the solution; from tissue; host or cells: swine kidney

[8] = Stability in nutrient preparations under heat sterilization; assay type: physicochemical
γ-glutamyl transferase = conditions: J. Biol. Chem., vol. 253, No. 6, p. 1799-1806 (1978); cited from earlier work
[9] = test system: γ-glutamyl cyclotransferase; conditions: J. Biol. Chem., vol. 253, No. 6, p. 1799-1806 (1978); cited from earlier work

T1 sequence (P20735 380-568 limits assumed): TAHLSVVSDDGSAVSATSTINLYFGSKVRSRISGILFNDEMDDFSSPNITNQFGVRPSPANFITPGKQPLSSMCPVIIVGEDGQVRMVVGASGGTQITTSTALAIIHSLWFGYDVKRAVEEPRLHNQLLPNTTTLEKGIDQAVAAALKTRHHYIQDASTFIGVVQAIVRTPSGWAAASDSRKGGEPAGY
T1 sequence (P20735 1-379 limits assumed): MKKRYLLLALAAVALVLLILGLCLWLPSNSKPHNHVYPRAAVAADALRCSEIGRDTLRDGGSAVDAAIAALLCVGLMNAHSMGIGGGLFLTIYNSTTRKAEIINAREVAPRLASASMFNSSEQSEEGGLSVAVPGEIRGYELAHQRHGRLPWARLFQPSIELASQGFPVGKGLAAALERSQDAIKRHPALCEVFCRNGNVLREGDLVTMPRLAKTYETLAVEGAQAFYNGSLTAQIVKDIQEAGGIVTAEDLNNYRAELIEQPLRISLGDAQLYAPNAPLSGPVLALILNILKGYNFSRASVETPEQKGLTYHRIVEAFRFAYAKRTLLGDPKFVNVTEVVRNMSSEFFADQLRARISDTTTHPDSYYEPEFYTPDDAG

| Compound | Residual Rate [1] | Residual Rate ([2]; 2 minutes) | Residual Rate ([2]; 5 minutes) | Residual Rate ([2]; 10 minutes) | Residual Rate ([2]; 20 minutes) | Disappearance of the dipeptide from blood [3] | Decomposition under sterilizing conditions [5] | Residual Rate after Sterilization [5] | Decomposition in storage stability test [6] | Residual Rate after Storage at 40° C. for 30 days [6] | Appearance (release) of glutamine in blood [3] | Concentration of Glutamine in kidney [4] | other results |
| --- | --- | --- | --- | --- | --- | --- | --- | --- | --- | --- | --- | --- | --- |
| NCC(=O)N[C@@H](CCC(N)=O)C(=O)O [Glycyl-L-glutamine] (H-Gly-Gln-OH) | 84% |  |  |  |  |  |  |  |  |  |  |  |  |
| C[C@H](N)C(=O)N[C@@H](CCC(N)=O)C(=O)O [L-Alanyl-L-glutamine, reference compound] (H-Ala-Gln-OH) | 74% | 87% | 62% | 24% | 11% | disappeared extremely rapidly |  |  |  |  | rapid release of glutamine into the blood | 1.14 ± 0.09 μmole/g wet weight |  |

Further lines, with some results ahead:

| Residual Rate [1] | Residual Rate ([2]; 2 minutes) | Residual Rate ([2]; 5 minutes) | Residual Rate ([2]; 10 minutes) | Residual Rate ([2]; 20 minutes) | Disappearance of the dipeptide from blood [3] | Decomposition under sterilizing conditions [5] | Residual Rate after Sterilization [5] | Decomposition in storage stability test [6] | Residual Rate after Storage at 40° C. for 30 days [6] | Compound | Appearance (release) of glutamine in blood [3] | Concentration of Glutamine in kidney [4] | other results |
| --- | --- | --- | --- | --- | --- | --- | --- | --- | --- | --- | --- | --- | --- |
| 58% |  |  |  |  |  |  |  |  |  | NC(=O)CC[C@H](NC(=O)[C@@H](N)CC(=O)O)C(=O)O [L-Aspartyl-L-glutamine] (H-Asp-Gln-OH) |  |  |  |
|  |  |  |  |  |  | 60% | 40% | 29% | 71% | NC(=O)CC[C@H](N)C(=O)O [L-Glutamine, reference compound] |  |  |  |
| 99% | 100% | 100% | 100% | 100% | slow | not decomposed at all | 100% | not decomposed at all | 100% | NC(=O)CC[C@H](NC(=O)CC[C@H](N)C(=O)O)C(=O)O [γ-L-Glutamyl-L-glutamine] | slow | 1.57 ± 0.12 μmole/g wet weight | Hydrolysis in human plasma ([1]; 10 mM): substantially free of hydrolysis; Hydrolysis by γ-GTP [7]: almost completely hydrolyzed; Hydrolysis in mouse plasma ([2]; up to 20 minutes): not hydrolyzed at all; Renal glutamine level ([4]; 20 minutes after administration, compared to prior to administration): significantly high renal glutamine level; Stability under the sterilizing conditions ([8]; Example 2 jelly-like nutrient preparation, heated at 100° C. for 30 minutes): remained stable; Stability under the sterilizing conditions ([8]; Example 3 composition for oral nutrient supplementation, 110° C. for 60 minutes): remained stable; Substrate for γ-glutamyl transferase (γ-glutamyl transferase): effective substrate; Substrate for γ-glutamyl cyclotransferase [9]: effective substrate |
